Measured values: patent publication US20210212937A1, “GLUCONO DELTA-LACTONE FOR TREATMENT OF VAGINAL FUNGAL INFECTIONS” (Gedea Biotech AB, priority 2016, published 2021)

Legend:
[1] = system: C. albicans; assay: Viability of mature biofilm, XTT staining; format: cell-based, Candida albicans
Procedure: (§1) XXT is a colorimetric assay for quantification of cellular viability, and cytotoxicity. The assay is based on the cleavage of the tetrazolium salt XTT, a conversion that only occurs in viable cells. […] Then the cells were washed 2 times with PBS, after which the XTT reaction mixture was added. After 30 min the optical density measured at 485 nm.

[2] = system: C. glabrata; assay: Viability of mature biofilm, XTT staining; format: cell-based, Candida glabrata; conditions: 24 h of incubation
Procedure: as §1

[3] = system: Candida sp.; assay: Viability on medium with calcofluor white versus osmotic stabilizer (cell wall damage); format: cell-based; conditions: compared to medium with 0.5M sucrose and to untreated cells
[4] = system: C. albicans; assay: Cell survival of mature biofilm, serial dilution plating on YPD; format: cell-based, Candida albicans; conditions: 0.5 g/ml, 5 h, 37° C.
Procedure: (§2) The plated cells were incubated for 24 h at 37° C. and visually analyzed. The cells from the mature biofilm treated with water were used as a control. […] At the concentrations of 0.2 and 0.5 g/ml after 5 h of incubation the cell viability was decreased by about 100 times for both C. albicans and C. glabrata.

[5] = system: Candida albicans; assay: Biofilm formation in a model of in vivo conditions using GDA pellet; format: cell-based; conditions: C. albicans
Procedure: (§3) Yeast strains were grown at 37° C. in complete medium YPD (0.5% (weight/volume) yeast extract, 1% (weight/volume) peptone, 2% (weight/volume) glucose) or minimal medium consisting of YNB (yeast nitrogen base without amino acids and ammonium sulphate, FORMEDIUM™, CYN0505) supplemented with 0.5% (weight/volume) ammonium sulphate, 0.2% (weight/volume) glucose and 100 mM L-proline. If needed 2% (weight/volume) agar was used to solidify media. The liquid minimal medium (YNB (yeast nitrogen base without amino acids and ammonium sulphate, FORMEDIUM™, CYN0505) supplemented with 0.5% ammonium sulphate, 0.2% (weight/volume) glucose and 100 mM L-proline) was used for biofilm assay (biofilm medium).
(§4) Biofilm was measured in liquid culture as described [K. Scherz et al., G3 (Bethesda), 2014, 4, 1671-1680. I. Serrano-Fujarte et al. Biomed Res Int. 2015; 2015:783639] with some modifications. Prior the biofilm assay, yeast cultures were grown in liquid YPD medium for 24 hours until stationary phase cells were then pelleted by centrifugation (1699×g), washed with sterile water and the cells were further inoculated into test biofilm medium (YNB (yeast nitrogen base without amino acids and ammonium sulphate) supplemented with 0.5% ammonium sulphate, 0.2% glucose and 100 mM L-proline pH7.0) at final concentration of 0.2 OD600/ml and incubated in 96-well flat-bottom polystyrene microtiter plates (Sigma Aldrich, Corning® Costar® culture plates, CLS3596-50EA) for 72 hours at 37° C. thermostat. At defined time points crystal violet (HT901-8FOZ; Sigma Aldrich) was added to the media at the final concentration 0.05% In addition, total biomass was measured. […] Total biomass and crystal violet biofilm staining measurements were performed at OD560 with FLUOstar OPTIMA plate reader, BMG LABTECH. […]
(§5) Samples (4 mL) were taken at fixed time points (1, 2, 3, 4, 5, 6 and 24 h) and new buffer solution (4 mL) was added. The samples were diluted 50 times with biofilm medium (vide supra) and the amount of biofilm formation was measured after 24 h as described above. […]

[6] = system: Candida glabrata; assay: as above; format: cell-based; conditions: C. glabrata; GDA released from pellet (2.5 g) in pH 3.71 buffer, samples 1-24 h, diluted 50 times
Procedure: as §3, §4, §5

[7] = system: Candida albicans; assay: Biofilm formation of Candida albicans at different pH (crystal violet); format: cell-based
Procedure: The biofilm was measured after 24 h and the staining was performed with crystal violet.
as §3
Biofilm was measured in liquid culture as described [K. Scherz et al., G3 (Bethesda), 2014, 4, 1671-1680. I. Serrano-Fujarte et al. Biomed Res Int. 2015; 2015:783639] with some modifications. […] At defined time points crystal violet (HT901-8FOZ; Sigma Aldrich) was added to the media at the final concentration 0.05% In addition, total biomass was measured. […] Total biomass and crystal violet biofilm staining measurements were performed at OD560 with FLUOstar OPTIMA plate reader, BMG LABTECH. […]

[8] = system: C. albicans; assay: Microfluidics study of biofilm development (cell morphology); format: cell-based, Candida albicans; conditions: 5 h, 1 h hydrolysate of GDA pellet diluted 50 times
Procedure: To monitor the C. albicans cell morphology we studied the biofilm development also using microscopy and microfluidics. After the yeast cells were inoculated, hyphae started to form within first hour of incubation in the biofilm medium (YNB supplemented with 100 mM proline and 0.2% glucose, pH7.0). […] A sample was taken after 1 h and diluted 50 times with biofilm medium and added to C. albicans.

[9] = system: C. glabrata; assay: Cell survival of mature biofilm, serial dilution plating on YPD; format: cell-based, Candida glabrata
Procedure: as §2

[10] = system: Candida; assay: Biofilm assay of hydroxylated carboxylic acids; format: cell-based
Excerpt: Given the importance of formation of biofilm in vulvovaginal Candida infections, a biofilm assay was deemed appropriate to evaluate the effect of hydroxylated carboxylic acid in targeting vulvovaginal Candida infections. […] As biofilm formation is dependent on both pH and the occurrence of alternative carbohydrate sources, it was not surprising to learn that lactic acid provides some effect on the formation of biofilm. Further, also some other hydroxylated C2-C5 carboxylic acids provided similar effects. Their effect is deemed to be related to their acidifying effect, as the stronger acid provided somewhat stronger effects.
Whereas the effect of other hydroxylated carboxylic acids seemingly only is due to their acidity (lowering the pH hampers the formation of biofilm), the effect of polyhydroxylated C6 carboxylic acids, e.g. gluconic acid, on formation of biofilm is pronounced already at pH<7. Thus, it seems that the effect of polyhydroxylated C6 carboxylic acid, e.g. gluconic acid, on formation of biofilm not merely is related to its acidity, but the compound itself, or more precisely the related δ-lactone thereof, also provides an effect.

`O=C1O[C@H](CO)[C@@H](O)[C@H](O)[C@H]1O` [GDA, glucono δ-lactone] was tested, and the “Viability of mature biofilm (XTT, OD 485 nm)” value (“Viability of mature biofilm” for short) ([1]; 24 h of incubation) was “less pronounced”, the “Viability of mature biofilm” value ([1]; 48 h) was “clearly seen” and the “Viability of mature biofilm” value [2] was “strong decrease in viability”. For the same compound, the “Viability on medium with calcofluor white” value [3] was “lower viability”, the “Decrease of cell viability” value [4] was “about 100 times” and the “Amount of biofilm formation” value ([5]; GDA released from pellet (2.5 g) in pH 3.71 buffer, samples 1-24 h, diluted 50 times) was “significantly reduces”. The “Duration of preventive effect of pellet” value ([5]; pellet 2.5 g in pH 3.71 buffer, 37° C.) was at least 24 h, the “Amount of biofilm formation” value [6] was “less pronounced” and the “pH up to which strong effect on biofilm formation is shown” value ([7]; C. albicans, 24 h) was “at least 6”. For the same compound, the “Effect on biofilm formation of C. albicans” value ([7]; minimal media pH 2.6-6.6, 24 h) was “strong effects”, the Cell morphology [8] was “most treated cells were planctonic” and the “Decrease of cell viability” value ([9]; C. glabrata mature biofilm, 0.5 g/ml, 5 h, 37° C.) was “about 100 times”. For the same compound, the “Sensitivity of mature biofilm compared with C. albicans” value ([9]; C. glabrata, plating after incubation with GDA) was “more sensitive”.
In the case of `O=C(O)[C@H](O)[C@@H](O)[C@H](O)[C@H](O)CO` [gluconic acid], the “pH at which effect on formation of biofilm is already pronounced” value [10] is reported as under 7 and the “Decrease of formation of biofilm” value ([10]; compared to glyceric acid, xylonic acid and citric acid) is reported as “superior effects”.
With `CC(O)C(=O)O` (stereo not shown) [lactic acid] the “Activity in biofilm assay” value ([10]; targeting vulvovaginal Candida infections) was “moderately active”.
